Data taken from article PMC9686653, “Bioengineered Nisin A Derivatives Display Enhanced Activity against Clinical Neonatal Pathogens” (Antibiotics, 2022).
In brackets after ≈: the same amount, converted by molar mass. Entries after “also recorded” stand apart in the source; their conditions may differ. Like-named read-outs stand apart in the source and are kept apart here. Marks after values point to notes of the source that are not given here.

Experiments:
S. agalactiae CIT 239 = assay: Broth MIC assay; type: cell-based, Streptococcus agalactiae; conditions: Streptococcus agalactiae
Procedure: (§1) MIC determinations were carried out in triplicate in 96-well microtiter plates (Sarstedt, Newton, NC, USA) as previously described. Initially, 200µL of 1% bovine serum albumin (BSA) (Sigma-Aldrich, St. Louis, MO, USA) (in PBS) was added to the plates which were incubated at 37 °C for 30 min. The solution was removed, plates were washed with 200 µL PBS and then air dried in a laminar flow hood. Target strains (Streptococcus agalactiae, Staphylococcus capitis and Lactococcus lactis) were grown overnight in suitable media under appropriate conditions and were subsequently sub-cultured into fresh broth and allowed to grow to an optical density of ~0.5 (OD600). The culture was then diluted to a final concentration of 10^5 CFU mL^−1 in a volume of 1 mL. The peptides were resuspended in appropriate media to a stock concentration of […] (S. agalactiae and S. capitis strains) and […] (L. lactis strains). Nisin A and nisin derivatives were adjusted to a starting concentration of 15 µM (S. agalactiae and S. capitis strains) or 5 µM (L. lactis strains). […] An aliquot of 100 µL of peptides and or antibiotics were added to the first well, mixed and then 2-fold serial dilutions of each peptide were made in TSBYE broth. Then, 100 µL of target strain was added to each test well, and the plates were incubated at 30 °C or 37 °C for 16 h. The MIC was read as the lowest peptide concentration causing inhibition of visible growth. Experiments were performed in triplicate.

S. agalactiae CIT 85 = assay: Broth MIC assay; type: cell-based, Streptococcus agalactiae; conditions: for MIC: Streptococcus agalactiae
Procedure: as §1

S. agalactiae CIT 87 = assay: Broth MIC assay; type: cell-based, Streptococcus agalactiae; conditions: Streptococcus agalactiae, CIT87; broth microdilution in TSBYE, 10^5 CFU/mL, 16 h, 37 °C; average of three independent biological repeats; read-out: MIC
Procedure: as §1

S. agalactiae CIT 364 = assay: Broth MIC assay; type: cell-based, Streptococcus agalactiae; conditions: Streptococcus agalactiae, CIT364; broth microdilution in TSBYE, 10^5 CFU/mL, 16 h, 37 °C; average of three independent biological repeats; read-out: MIC
Procedure: as §1

S. agalactiae CIT 67 = assay: Broth MIC assay; type: cell-based, Streptococcus agalactiae; conditions: Streptococcus agalactiae, CIT67; broth microdilution in TSBYE, 10^5 CFU/mL, 16 h, 37 °C; average of three independent biological repeats; read-out: MIC
Procedure: as §1

S. agalactiae strains = assay: Broth MIC assay, summary over isolates; type: cell-based, Streptococcus agalactiae; conditions: for MIC: Streptococcus agalactiae, read-out: MIC values over S. agalactiae strains, span over the isolates the sentence refers to (three, four or all five)
Procedure: as §1

S. capitis AY41 = assay: microbe, parasite or virus in culture; type: cell-based, Staphylococcus capitis; conditions: for MIC: 16 h
Procedure: as §1

S. capitis BA06 = assay: Broth MIC assay; type: cell-based, Staphylococcus capitis; conditions: for MIC: Staphylococcus capitis, BA06, broth microdilution in TSBYE, 10^5 CFU/mL, 16 h, 37 °C, average of three independent biological repeats, read-out: MIC
Procedure: as §1

S. capitis BD01 = assay: Broth MIC assay; type: cell-based, Staphylococcus capitis; conditions: Staphylococcus capitis, BD01; broth microdilution in TSBYE, 10^5 CFU/mL, 16 h, 37 °C; average of three independent biological repeats; read-out: MIC
Procedure: as §1

S. capitis AV80 [1] = assay: Broth MIC assay; type: cell-based; conditions: Staphylococcus capitis, AV80; broth microdilution in TSBYE, 10^5 CFU/mL, 16 h, 37 °C; average of three independent biological repeats; read-out: MIC
Procedure: as §1

S. capitis AR18 = assay: Broth MIC assay; type: cell-based; conditions: Staphylococcus capitis, AR18; broth microdilution in TSBYE, 10^5 CFU/mL, 16 h, 37 °C; average of three independent biological repeats; read-out: MIC
Procedure: as §1

S. capitis strains = assay: Broth MIC assay, summary over isolates; type: cell-based, Staphylococcus capitis
Procedure: as §1, with “Then, 100 µL of target strain was added to each test well, and the plates were incubated at 30 °C or 37 °C for 16 h.” left out, “Experiments were performed in triplicate.” left out

[2] = system: nisin resistance protein (NSR); conditions: cited from earlier work
S. capitis AV80 [3] = assay: Time-kill curve analysis; type: cell-based, Staphylococcus capitis; conditions: nisin peptides […] (1/4 MIC), ampicillin 3.75 µg/mL (1/4 MIC); re-growth after 6 h
Procedure: The means and standard deviations of three independent determinations are presented.
During incubation, 100µL of each sample was taken at 0, 2, 4, 6 and 24 h. Cell growth was assessed by performing viable cell counts by diluting cultures in PBS solution and enumeration on TSBYE plates. Synergism was defined as ≥2 log10 CFU/mL reduction with the combination of antimicrobials relative to either antimicrobial alone after 24 h. A 1–2 log10 reduction in CFU/mL was defined as an additive effect and an increase or decrease of <1 log10 was defined as an indifferent effect. An antagonistic effect was defined as >2 log10 increase in CFU/mL after 24 h [28]. Experiments were performed in triplicate.

[4] = system: clinical isolates of S. agalactiae (n = 5) and S. capitis (n = 5); assay: Deferred antagonism agar-based assay; type: cell-based, Streptococcus agalactiae, Staphylococcus capitis; conditions: pathogenic indicators, n = 10; listed as nisin PV
Procedure: All plates were supplemented with sub-inhibitory concentration (10 µg/L) of nisin in the form of nisaplin to ensure induction of the nisin mutants.
Site-saturation mutagenesis of three codons, including threonine, lysine and methionine, at positions 2, 12 and 17 of the nisA gene, was carried out as described previously. Briefly, pDF23 (pCI372-PV) was used as a template and oligonucleotides, NisT2deg-FOR and REV, NisK12deg-FOR and REV and Nis17deg-FOR and REV, containing an NNK codon potentially encoding for all twenty standard amino acids. Deferred antagonism agar-based assays were employed to assess the bioactivity of the nisin derivatives (PV, K12X-PV, T2X-PV, and M17X-PV) produced by each strain. Briefly, fresh overnight cultures of each L. lactis test culture was replicated on GM17/TSBYE agar plates containing 0.1% nisaplin using a 96-pin replicator (Boekel, Feasterville, PA, USA) and incubated overnight at 30 °C before being exposed to ultraviolet radiation for 45 min. The plates were then overlayed with GM17/TYSBYE agar (0.75% agar) and seeded (0.5% inoculum) with either Lactococcus lactis MG1614 (NSR-), the nisin resistance protein-expressing indicator strain L. lactis MG1614 pNP40 (NSR+) or TSBYE agar seeded with Staphylococcus capitis (NSR+) or Streptococcus agalactiae (NSR+) isolates. […]

[5] = CIT239, broth microdilution in TSBYE, 10^5 CFU/mL, 16 h, 37 °C, average of three independent biological repeats, read-out: MIC
[6] = CIT85, broth microdilution in TSBYE, 10^5 CFU/mL, 16 h, 37 °C, average of three independent biological repeats, read-out: MIC
[7] = Staphylococcus capitis, AY41, broth microdilution in TSBYE, 10^5 CFU/mL, 37 °C, average of three independent biological repeats, read-out: MIC

Row | Structure (SMILES) | MIC (S. agalactiae CIT 239; [5]) [µg/mL] | MIC (S. agalactiae CIT 85; [6]) [µg/mL] | MIC (S. agalactiae CIT 87) [µg/mL] | MIC (S. agalactiae CIT 364) [µg/mL] | MIC (S. agalactiae CIT 67) [µg/mL] | MIC (S. agalactiae strains) [µg/mL] | MIC (S. capitis AY41; [7]) [µg/mL] | MIC (S. capitis BA06) [µg/mL] | MIC (S. capitis BD01) [µg/mL] | MIC (S. capitis AV80 [1]) [µg/mL] | MIC (S. capitis AR18) [µg/mL] | other results
1 | CC1(C)S[C@@H]2[C@H](NC(=O)[C@H](N)c3ccccc3)C(=O)N2[C@H]1C(=O)O [Ampicillin, ampicillin] | 0.097 (≈ 0.278 µM) | 0.097 (≈ 0.278 µM) | 0.78 (≈ 2.23 µM) | 0.78 (≈ 2.23 µM) | 1.56 (≈ 4.46 µM) | 0.78 to 1.56 (≈ 2.23 to 4.46 µM) | – | – | – | – | – | –
2 | CC[C@H]1OC(=O)[C@H](C)[C@@H](O[C@H]2C[C@@](C)(OC)[C@@H](O)[C@H](C)O2)[C@H](C)[C@@H](O[C@@H]2O[C@H](C)C[C@H](N(C)C)[C@H]2O)[C@](C)(O)C[C@@H](C)C(=O)[C@H](C)[C@@H](O)[C@]1(C)O [Erythromycin, erythromycin] | – | – | 0.39 (≈ 0.531 µM) | 0.78 (≈ 1.06 µM) | 1 (≈ 1.36 µM) | 0.78 to 3.13 (≈ 1.06 to 4.26 µM) | 0.195 (≈ 0.266 µM) | 12.5 (≈ 17 µM) | 6.25 (≈ 8.52 µM) | 12.5 (≈ 17 µM) | 0.097 (≈ 0.132 µM) | MIC (S. agalactiae CIT 239; CIT239, 16 h): 1.56 µg/mL (≈ 2.13 µM); MIC (S. agalactiae CIT 85; CIT85, 16 h): 3.13 µg/mL (≈ 4.26 µM)
3 | CNC(C)C1CCC(N)C(OC2C(N)CC(N)C(OC3OCC(C)(O)C(NC)C3O)C2O)O1 (stereo not shown) [Gentamicin, gentamicin] | 25 (≈ 52.3 µM) | 6.25 (≈ 13.1 µM) | 25 (≈ 52.3 µM) | 25 (≈ 52.3 µM) | 25 (≈ 52.3 µM) | – | 0.39 (≈ 0.817 µM) | > 50 | > 50 | > 50 | > 50 | MIC (S. capitis strains; Staphylococcus capitis, span over the isolates the sentence refers to (four or all five)): > 50 µg/mL
4 | C=C(NC(=O)[C@@H](NC(=O)[C@H](Cc1c[nH]cn1)NC(=O)[C@@H](NC(=O)[C@@H]1CCCN1C(=O)[C@@H]1CS[C@@H](C)[C@H]2NC(=O)[C@H](C)NC(=O)[C@H](NC(=O)[C@H](CCCCN)NC(=O)[C@H](CCSC)NC(=O)[C@H](CC(N)=O)NC(=O)[C@@H]3CS[C@@H](C)[C@@H](NC(=O)[C@H](CCCCN)NC(=O)[C@@H]4CS[C@@H](C)[C@@H](NC(=O)[C@@H]5CSC[C@@H](NC(=O)/C(=C/C)NC(=O)[C@@H](N)[C@@H](C)CC)C(=O)N[C@@H]([C@@H](C)CC)C(=O)NC(=C)C(=O)N[C@@H](CC(C)C)C(=O)N5)C(=O)N5CCC[C@H]5C(=O)NCC(=O)N4)C(=O)NCC(=O)N[C@@H](C)C(=O)N[C@@H](CC(C)C)C(=O)N[C@@H](CCSC)C(=O)NCC(=O)N3)[C@H](C)SC[C@H](NC2=O)C(=O)N[C@@H](Cc2c[nH]cn2)C(=O)N1)C(C)C)C(C)C)C(=O)N[C@@H](CCCCN)C(=O)O [PV] | – | – | – | – | – | – | – | – | – | – | – | fold decrease in potency compared to nisin A (S. agalactiae CIT 85; from MIC): 2 fold; susceptibility to proteolytic cleavage by NSR [2]: resist proteolytic cleavage by NSR; MIC (S. capitis AY41): 6 * µg/mL; fold increase in potency compared to nisin A (S. capitis AY41; from MIC): 4 fold; fold more active compared to nisin A (S. capitis strains; some strains of S. capitis, purified peptides): 2–4 fold; time-kill outcome of single treatments (S. capitis AV80 [3]): inhibited bacterial growth over 4 h; bioactivity (zone of inhibition) of the producing strain [4]: improved antimicrobial activity against all strains tested; also recorded: greatest bioactivity against the majority of pathogenic indicators; fold increase in potency compared to nisin A (S. agalactiae strains; four of the five S. agalactiae strains, from MIC): 2 fold; fold increase in potency compared to nisin A (S. capitis BA06; from MIC): 2 fold
